Test [1] concerns the target T1, Human HDAC2 (Homo sapiens, UniProt Q92769).
T1 construct: full-length with a C-terminal His-tag; His-tag (C); made in house
In words: Biochemical HDAC assay, HDAC2. The settings on record: incubation time 120 min. How it is done: Human HDAC2 (GenBank Accession No. NM_001527), full-length with a C-terminal His-tag, MW=56 kDa, was expressed in a baculovirus expression system.
(§1) • I. Compound handling: Testing compounds were dissolved in 100% DMSO to a specific concentration. The serial dilution was conducted by epMotion 5070 in DMSO. • II. HDAC reaction buffer: 50 mM Tris-HCl, pH8.0, 137 mM NaCl, 2.7 mM KCl, and 1 mM MgCl2, Added fresh: 1 mg/ml BSA, 1% DMSO. • III. Substrate: Fluorogenic HDAC General Substrate for HDAC1, 2, 3, 6, 10, 11 ans Sirt1, 2 and 3: Arg-His-Lys-Lys(Ac); HDAC8 only substrate: Arg-His-Lys(Ac)-Lys(Ac); Class2A Substrate (HDAC4, 5, 7 and 9): Acetyl-Lys(trifluoroacetyl)-AMC; Sirt5 substrate: Ac-Lys(succinyl)-AMC. • IV. General Reaction Procedure: (Standard IC50 determination) • a. Delivered 2× enzyme in wells of reaction plate except No Enzyme (No En) control wells. Add buffer in No En wells. • b. Delivered compounds in 100% DMSO into the enzyme mixture by Acoustic technology (Echo550; nanoliter range). Spin down and pre-incubation. • c. Delivered 2× Substrate Mixture (Fluorogenic HDAC Substrate and co-factor (500 μM of Nicotinamide adenine dinucleotide (NAD^+) in all Sirt assay) in all reaction wells to initiate the reaction. Spin and shake. • d. Incubated for 1-2 hr. at 30° C. with seal. • e. Added Developer with Trichostatin A (or TMP269 or NAD^+) to stop the reaction and to generate fluorescent color. • f. Fluorescence was read (excitatory, 360; emission, 460) using the EnVision Multilabel Plate Reader (Perkin Elmer) • g. Endpoint reading was taken for analysis after the development reaches plateau. • V. Data Analysis: The percentages of enzyme activity (relative to DMSO controls) and IC50 values were calculated using the GraphPad Prism 4 program based on a sigmoidal dose-response equation.
(§2) Compounds with indicated doses was tested in the biochemical assays of HDAC1, HDAC2, HDAC3, HDAC4, HDAC5, HDAC6, HDAC7, HDAC8, HDAC9, HDAC10, or HDAC11 enzyme. The incubation time in HDAC1/2 assays are 120 min, and that for other HDACs are 10 min. The curve fit and IC50 values were calculated using the GraphPad Prism 4 program based on a sigmoidal dose-response equation.

For test [2], the target named is T2, Complex of human HDAC3 and human NCOR2 (Homo sapiens, UniProt O15379).
T2 construct: full-length with a C-terminal His tag; His tag (C); made in house
T2 sequence (O15379 whole entry): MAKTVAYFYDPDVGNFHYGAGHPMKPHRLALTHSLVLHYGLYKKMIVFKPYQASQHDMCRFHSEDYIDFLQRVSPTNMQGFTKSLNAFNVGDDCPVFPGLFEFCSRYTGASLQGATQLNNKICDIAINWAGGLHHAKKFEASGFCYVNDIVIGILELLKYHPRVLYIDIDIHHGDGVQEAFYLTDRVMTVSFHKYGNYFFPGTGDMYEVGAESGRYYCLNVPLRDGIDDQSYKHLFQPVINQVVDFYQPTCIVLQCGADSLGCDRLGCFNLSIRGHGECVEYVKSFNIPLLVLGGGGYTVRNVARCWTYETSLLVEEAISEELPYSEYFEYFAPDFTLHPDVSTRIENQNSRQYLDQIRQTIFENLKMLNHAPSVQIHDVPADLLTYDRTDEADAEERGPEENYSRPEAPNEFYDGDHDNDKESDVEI
T2 sequence (Q9Y618 395-489 partner limits assumed): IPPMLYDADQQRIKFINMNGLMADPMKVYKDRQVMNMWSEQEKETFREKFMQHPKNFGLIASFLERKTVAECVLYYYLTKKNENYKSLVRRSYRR
The test can be described thus: Biochemical HDAC assay, HDAC3. The settings on record: incubation time 10 min. The method, then:
Complex of human HDAC3 (GenBank Accession No. NM_003883), full-length with a C-terminal His tag, MW=49.7 kDa, and human NCOR2 (amino acid 395-489) (GenBank Accession No. NM_006312), N-terminal GST tag, MW=37.6 kDa, was co-expressed in a baculovirus expression system.
as §1, §2

The target of test [3] is T3, Human HDAC1 (Homo sapiens, UniProt Q13547).
T3 construct: full-length with a C-terminal His-tag and a C-terminal FLAG-tag; His-tag (C); FLAG-tag (C); made in house
T3 sequence (Q13547 whole entry): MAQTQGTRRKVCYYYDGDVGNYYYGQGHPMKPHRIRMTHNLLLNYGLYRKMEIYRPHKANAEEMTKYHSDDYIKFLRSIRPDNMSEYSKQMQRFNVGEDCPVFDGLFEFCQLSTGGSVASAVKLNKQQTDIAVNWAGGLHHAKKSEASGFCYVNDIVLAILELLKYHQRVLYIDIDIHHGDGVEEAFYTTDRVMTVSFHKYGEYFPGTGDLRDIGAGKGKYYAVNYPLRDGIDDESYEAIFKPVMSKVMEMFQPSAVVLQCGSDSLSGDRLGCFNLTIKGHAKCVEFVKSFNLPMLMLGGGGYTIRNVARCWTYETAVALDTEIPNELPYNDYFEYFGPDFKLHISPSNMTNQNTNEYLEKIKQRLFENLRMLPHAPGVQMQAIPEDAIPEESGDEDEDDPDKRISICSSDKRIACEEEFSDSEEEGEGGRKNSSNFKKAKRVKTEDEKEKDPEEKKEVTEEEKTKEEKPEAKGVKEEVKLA
In words: Biochemical HDAC assay, HDAC1. The settings on record: incubation time 120 min. The method, then:
Human HDAC1 (GenBank Accession No. NM_004964), full-length with a C-terminal His-tag and a C-terminal FLAG-tag, MW=56 kDa, was expressed in a baculovirus expression system.
as §1, §2

Test [4] addresses T4, Human HDAC8 (Homo sapiens, UniProt Q9BY41).
T4 construct: full-length with a C-terminal His tag; His tag (C); made in house
T4 sequence (Q9BY41 1-377): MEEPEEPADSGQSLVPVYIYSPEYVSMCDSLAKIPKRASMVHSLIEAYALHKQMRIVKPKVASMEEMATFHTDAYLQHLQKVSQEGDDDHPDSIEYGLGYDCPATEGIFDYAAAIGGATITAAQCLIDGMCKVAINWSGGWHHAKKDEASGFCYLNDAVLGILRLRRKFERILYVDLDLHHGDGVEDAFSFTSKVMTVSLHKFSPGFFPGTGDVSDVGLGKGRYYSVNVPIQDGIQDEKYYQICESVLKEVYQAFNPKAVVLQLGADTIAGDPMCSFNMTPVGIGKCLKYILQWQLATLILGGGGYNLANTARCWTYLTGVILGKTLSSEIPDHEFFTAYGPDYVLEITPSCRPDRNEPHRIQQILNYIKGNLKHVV
The test can be described thus: Biochemical HDAC assay, HDAC8. The settings on record: incubation time 10 min. The method, then: Human HDAC8 (GenBank Accession No. NM_018486), full-length with a C-terminal His tag, MW=46.4 kDa, was expressed in a baculovirus expression system.
as §1, §2

Test [5] addresses T5, Recombinant human HDAC6 (Homo sapiens, UniProt Q9UBN7).
T5 construct: full-length, MW=180 kDa; GST tag (N); made in house; host or cells: Sf9 insect cells (baculovirus)
T5 sequence (Q9UBN7 1-1215): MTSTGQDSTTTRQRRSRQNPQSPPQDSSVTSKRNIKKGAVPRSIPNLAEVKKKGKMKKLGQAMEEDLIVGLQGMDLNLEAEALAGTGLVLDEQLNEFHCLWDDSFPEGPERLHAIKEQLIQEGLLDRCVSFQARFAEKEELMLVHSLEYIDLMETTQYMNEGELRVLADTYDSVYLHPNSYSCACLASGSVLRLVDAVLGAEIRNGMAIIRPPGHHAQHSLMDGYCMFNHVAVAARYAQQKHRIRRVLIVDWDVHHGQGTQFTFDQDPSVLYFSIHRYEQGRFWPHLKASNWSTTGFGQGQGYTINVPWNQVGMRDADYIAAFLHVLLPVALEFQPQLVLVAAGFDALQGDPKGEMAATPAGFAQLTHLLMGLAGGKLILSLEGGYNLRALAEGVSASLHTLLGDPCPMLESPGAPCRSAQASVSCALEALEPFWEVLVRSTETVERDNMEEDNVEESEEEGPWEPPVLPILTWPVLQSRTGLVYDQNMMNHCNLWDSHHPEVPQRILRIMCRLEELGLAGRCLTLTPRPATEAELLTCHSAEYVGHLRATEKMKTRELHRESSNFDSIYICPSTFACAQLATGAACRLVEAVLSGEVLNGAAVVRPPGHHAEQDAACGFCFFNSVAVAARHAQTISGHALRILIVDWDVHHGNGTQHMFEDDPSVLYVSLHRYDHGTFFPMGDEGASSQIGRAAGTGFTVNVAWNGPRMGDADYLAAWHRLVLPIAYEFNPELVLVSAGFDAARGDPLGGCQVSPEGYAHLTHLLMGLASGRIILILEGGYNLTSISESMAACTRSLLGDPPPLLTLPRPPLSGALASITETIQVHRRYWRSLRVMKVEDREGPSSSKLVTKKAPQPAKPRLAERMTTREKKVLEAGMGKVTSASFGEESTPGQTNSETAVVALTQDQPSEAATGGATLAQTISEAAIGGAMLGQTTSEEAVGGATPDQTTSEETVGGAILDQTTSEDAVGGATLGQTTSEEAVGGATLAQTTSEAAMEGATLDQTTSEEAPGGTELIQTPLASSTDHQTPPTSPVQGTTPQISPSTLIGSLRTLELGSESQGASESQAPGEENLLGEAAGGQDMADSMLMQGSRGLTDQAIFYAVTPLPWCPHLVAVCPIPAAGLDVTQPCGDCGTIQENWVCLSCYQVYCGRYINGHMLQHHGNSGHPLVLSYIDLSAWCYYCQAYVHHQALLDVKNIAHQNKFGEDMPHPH
In words: Biochemical HDAC assay, HDAC6. The settings on record: incubation time 10 min. How it is done:
Recombinant human HDAC6 (GenBank Accession No. BC069243), full-length, MW=180 kDa, was expressed by baculovirus in Sf9 insect cells using an N-terminal GST tag.
as §1, §2

A word on the IC50: it is the concentration needed to halve the response being measured.

T1 sequence (Q92769 whole entry): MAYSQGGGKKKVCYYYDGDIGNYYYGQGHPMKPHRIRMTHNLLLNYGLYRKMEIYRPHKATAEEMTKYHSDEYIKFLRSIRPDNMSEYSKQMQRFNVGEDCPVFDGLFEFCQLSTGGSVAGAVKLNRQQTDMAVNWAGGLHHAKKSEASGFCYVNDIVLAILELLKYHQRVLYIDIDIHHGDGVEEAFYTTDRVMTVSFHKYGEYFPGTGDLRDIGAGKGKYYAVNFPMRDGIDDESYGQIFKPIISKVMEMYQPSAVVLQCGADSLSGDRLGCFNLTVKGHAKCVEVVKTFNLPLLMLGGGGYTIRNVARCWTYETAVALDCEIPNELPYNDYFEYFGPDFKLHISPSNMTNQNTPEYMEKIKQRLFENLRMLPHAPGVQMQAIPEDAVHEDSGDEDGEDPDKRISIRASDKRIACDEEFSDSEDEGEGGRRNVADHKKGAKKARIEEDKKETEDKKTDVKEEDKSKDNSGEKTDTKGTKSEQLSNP

As for `Nc1ccc(-c2cccs2)cc1NC(=O)c1ccc2c(c1)CCNC2=O` [Example 1, N-(2-amino-5-(thiophen-2-yl)phenyl)-1-oxo-1,2,3,4-tetrahydroisoquinoline-6-carboxamide], the IC50 in test [1] was 24 nM; in test [2], greater than 10000 nM; in test [3], 1.8 nM; in test [4] it was greater than 10000 nM; in test [5], greater than 10000 nM.

As for `Nc1ccc(-c2cccs2)cc1NC(=O)c1ccc2c(c1)CCN(CC1CCOCC1)C2=O` [Example 2, N-(2-amino-5-(thiophen-2-yl)phenyl)-1-oxo-2-((tetrahydro-2H-pyran-4-yl)methyl)-1,2,3,4-tetrahydroisoquinoline-6-carboxamide], the IC50 was 23 nM in test [1]; greater than 10000 nM in test [2]; 1.9 nM in test [3]; greater than 10000 nM in test [4]; greater than 10000 nM in test [5].

For `Nc1ccc(-c2cccs2)cc1NC(=O)c1ccc2c(c1)CCN(C(=O)c1cccnc1)C2` [Example 4, N-(2-amino-5-(thiophen-2-yl)phenyl)-2-nicotinoyl-1,2,3,4-tetrahydroisoquinoline-6-carboxamide], the IC50 in test [1] was 39 nM; in test [2], greater than 10000 nM; in test [3], 3 nM; in test [4] it was greater than 10000 nM; in test [5] it was greater than 10000 nM.

Consider `Nc1ccc(-c2cccs2)cc1NC(=O)c1ccc2c(c1)CCN(C(=O)C1CCOCC1)C2` [Example 3, N-(2-amino-5-(thiophen-2-yl)phenyl)-2-(tetrahydro-2H-pyran-4-carbonyl)-1,2,3,4-tetrahydroisoquinoline-6-carboxamide], for which the IC50 in test [1] was 25 nM; in test [2] it was greater than 10000 nM; in test [3], 2.6 nM; in test [4], greater than 10000 nM; in test [5], greater than 10000 nM.

These data come from patent US20190270733A1, “Quinoline and Isoquinoline Based HDAC Inhibitors and Methods of Use Thereof” (Reaction Biology Corp., priority 2018, published 2019).
